Key:
[1] = test system: primary mouse hepatocytes; experiment: NMN uptake in primary mouse hepatocytes, intracellular NMN by HPLC; assay type: cell-based
Protocol: The amounts of adenosine produced were determined by HPLC. […] Silencing efficiencies were evaluated by quantitative RT-PCR.
Primary mouse hepatocytes were pretreated with 500 nM FK866 for 24 h and then incubated with a cocktail of 20 μM dipyridamole, 500 μM AOPCP, and 500 nM FK866, with or without 100 μM NMN. NMN was measured by HPLC (n=4 mice, except for 3 data sets for 15 and 30 minute time points for inhibitors only; analyzed using ANOVA with Sidak's test).
To measure the knockdown efficiencies of Slc12a8 and Nrk1 mRNA in primary mouse hepatocytes, cells were treated with scramble and Slc12a8 or Nrk1 siRNA for 72 h (n=5 mice for Slc12a8 silencing and n=3 for Nrk1 silencing; analyzed by unpaired […] t-test). Without being limited by theory, these conditions knocked down expression of Slc12a8 and Nrk1, a major NR kinase that converts NR to NMN intracellularly (Belenky, P., et al., Cell, 129, 473-484, 2007). Primary hepatocytes treated with scramble, Slc12a8, and Nrk1 siRNA were assayed at 1 min after addition of 100 μM NMN via HPLC. Culture conditions were the same as described in Example 3 (n=5 mice for Slc12a8 silencing and n=3 for Nrk1 silencing; analyzed by ANOVA with Tukey's test). The knockdown efficiencies for both genes are approximately 80% (FIG. 7).

[2] = Jejunum NAD+ levels 60 min after oral gavage of NMN; assay type: in vivo, mouse; details: 60 min after oral gavage (500 mg/kg), Slc12a8-knockdown mice compared to control mice
Source text: In vivo Slc12a8 knockdown experiment. To generate shRNA-expressing lentiviral constructs, 56-bp double-stranded oligonucleotides, each of which contains a sense target sequence, a microRNA-based loop sequence ([…]; SEQ ID NO: 4), an antisense sequence, a termination sequence of four thymidines, and appropriate restriction enzyme sites at both ends, were generated for mouse Slc12a8 and firefly luciferase (fLuc) and cloned into the U6-PGK-GFP vector provided by the Viral Vectors Core at Washington University School of Medicine. The sense Slc12a8 sequence is ‘5-[…]-3’ (SEQ ID NO: 5). Lentiviruses were produced as previously described (Satoh, A. et al., Cell Metab., 18, 416-430, 2013). Knockdown efficiency was tested using primary intestinal cultures (Sato, T. & Clevers, H., Methods Mol. Biol. 945, 319-328, 2013). Large-scale lentivirus production was carried on by the Viral Vectors Core at the Hope Center for Neurological Disorders at Washington University. […]
Lentiviruses carrying control firefly luciferase (fLuc) shRNA and Slc12a8 shRNA were generated as described supra. […] Slc12a8 protein expression levels in control shfLuc lentivirus- and shSlc12a8 lentivirus-infected jejunum and ileum samples were measured through Western blots (FIG. 17). […] Then NAD+ levels were measured by HPLC in these samples (analyzed by ANOVA with Tukey's test).

[3] = test system: various types of primary cells; details: NMN co-administered with FK866, compared to NMN in the absence of FK866; cited from earlier work

## NC(=O)c1ccc[n+]([C@@H]2O[C@H](COP(=O)([O-])O)[C@@H](O)[C@H]2O)c1 [NMN, nicotinamide mononucleotide]
[1]; 100 μM NMN with 20 μM dipyridamole, 500 μM AOPCP, 500 nM FK866, 1 min time point vs control
  intracellular NMN levels: significantly increase
[1]; Nrk1-knockdown hepatocytes, 1 min after 100 μM NMN
  NMN uptake: no significant reduction
[1]; Slc12a8-knockdown hepatocytes, 1 min after 100 μM NMN
  fast uptake of NMN: completely abrogated
[2]
  NAD+ levels in the jejunum: significantly decreased
[3]
  NAD+ increase: higher NAD+ increases

— patent US12337010B2, “Compositions and methods of treatment using nicotinamide mononucleotide” (Washington University, priority 2017, dated 2025)
